Data reported in patent US6548507B1, “Medical use” (SmithKline Beecham Corporation, priority 1999, dated 2003).

How the values were obtained:
[1] = test system: sensory neuronal apoptosis; experiment: Apoptosis in L4 and L5 dorsal root ganglia after chronic constriction injury (CCI), Hoechst 33342 staining; type: in vivo, rat; conditions: for number of neurones undergoing apoptosis (FIG. 2): CCI rats, 10 mg/kg, time points day 7, 21 and 30, vs vehicle treated animals; for sensory neuronal apoptosis / glial apoptosis: adult male CCI rats; for sensory neuronal apoptosis: 10 mg/kg dosed day 12 to day 25, at day 30 post surgery; for glial apoptosis: 10 mg/kg dosed day 12 to day 25, results not shown
Experimental: Adult male random hooded rats were either chronic constriction injury (CCI) or sham operated at day 0. Dosing with vehicle, 4030W92 (10 mg/kg) or 4082W92 (10 mg/kg) was from day 12 to day 25. At time points 7, 14, 21, 27 and 30 days post surgery animals (n=3 per group except for naives) were sacrificed by exsanguination after behavioural testing as described below. Naive animals were all sacrificed 30 days post surgery. L4 and L5 dorsal root ganglias were removed and placed in a freezing medium for sectioning. Sections (14 μm) were cut using a freezing cryostat (Leica) and placed on poly (L) lysine coated slides. These were post-fixed in 4% paraformaldehyde (Sigma) for 20 minutes, dehydrated through alcohol and kept at −80° until required. On the day of staining, the sections were rehydrated through alcohol and placed in phosphate buffered saline (PBS) for at least 15 minutes. They were incubated with the fluorescent nuclear stain Hoechst 33342 (1 μg/ml) (Sigma) for 4 minutes and then washed extensively with PBS. After drying, the slides were mounted with Vectashield mounting medium (Vector Labs) and coverslipped. The slides could be kept in the dark for up to 6 weeks without fading.
The sections were studied under the microscope (Leica) at 400× for morphological signs of apoptosis—nuclear condensation, membrane blebbing and presence of apoptotic bodies (Trump 1997 supra). Cells were assigned as neurones or glia depending on their size, location, and general morphology. Four fields from each section were selected at random, the number of apoptotic cells and total number of cells was counted in each and then mean figures for each group were calculated. This analysis was carried out blind. […] Glial apoptosis was unaffected (results not shown).

mechanical allodynia = experiment: CCI mechanical allodynia, Von Frey Hair monofilaments; type: in vivo, rat; conditions: CCI rats, drug administered from day 12, Von Frey Hair monofilaments
Description: (§1) Under isoflurane anaesthesia, the common left sciatic nerve of male Random Hooded rats (180-200 g) was exposed at mid-thigh level. Four ligatures of chromic gut (4.0) were tied loosely around the nerve with a 1 mm spacing between each. The wound was then closed and secured with suture clips. The surgical procedure was identical for the sham operated animals except the sciatic nerve was not ligated. The rats were allowed a period of seven days to recover from the surgery before behavioural testing began.
The presence of mechanical allodynia was assessed using Von Frey Hair monofilaments (range:4.19-84.96 g). The rats were lightly restrained and placed upon a metal grid floor. The monofilaments were applied to the plantar surface of the hindpaws from below the grid. The lowest monofilament to produce a withdrawal was the response recorded.

[2] = test system: mechanical hypersensitivity; experiment: CCI-induced decrease in mechanical paw withdrawal threshold (algesymeter); type: in vivo, rat; conditions: CCI rats, drug administered from day 12, algesymeter
Description: as §1
The effect on Chronic Constriction Injury-induced decrease in mechanical paw withdrawal threshold was measured using an algesymeter (Randall L O, Selitto J J. A method for measurement of analgesic activity on inflamed tissue. Arch. Int. Pharmacodyn. 1957; 61:409-419). In brief, from 7 days post surgery onwards every 2 or 3 days the animals were tested for mechanical hypersensitivity by applying an increasing weight (16 gram per second) to the dorsal surface of each hindpaw until the rat attempted to remove the paw. The increasing weight was halted at this point and the weight recorded and expressed as mechanical paw withdrawal threshold. The maximum weight applied in this model was 250 gram. Drug was administered once the hypersensitivity was maximal which in this case was at day 12.

[3] = test system: apoptotic neurons in L5 dorsal root ganglions; experiment: Neuronal apoptosis after sciatic nerve axotomy in the neonatal rat (TUNEL combined with Hoechst 33342 and immunohistochemistry); type: in vivo; conditions: single pre-emptive injection 10 mg/kg s/c, observed at 24 hours, vs vehicle treated controls
Experimental: Newborn animals received a single pre-emptive injection of R(−)-2,4-diamino-5-(2,3-dichlorophenyl)-6-fluoromethyl pyrimidine, substantially free of the corresponding S(+)enantiomer (4030W92) (10 mg/kg, s/c). Twenty minutes later the animals were anaesthetised by hypothermia, the nerve exposed and transected at the mid thigh level. The extent of neuronal and glial apoptosis was investigated using the TUNEL technique combined with Hoechst 33342 (Sigma) and immunohistochemistry. The ipsilateral and contralateral L5 dorsal root ganglions were compared and the 4030W92 treated group was compared to vehicle treated controls and to animals that received an injection of 4030W92 alone, ie. no nerve transection.

[4] = test system: motorneuronal apoptotic cell death; conditions: after neonatal axotomy; cited from earlier work

SMILES	number of neurones undergoing apoptosis (FIG. 2) [1]	sensory neuronal apoptosis [1]	glial apoptosis [1]	Von Frey withdrawal threshold (mechanical allodynia) (mechanical allodynia)	mechanical paw withdrawal threshold [2]	number of apoptotic neurons [3]	motorneuronal apoptotic cell death [4]
Nc1nc(N)c(-c2cccc(Cl)c2Cl)c(CF)n1 (atropisomer, axis not shown) [4030W92, R(−)-2,4-diamino-5-(2,3-dichlorophenyl)-6-fluoromethyl pyrimidine]	decreases	significantly reduced sensory neuronal apoptosis	unaffected	significantly reversed the reduction in thresholds	significantly reversed the reduction in thresholds	significant reduction in the number of apoptotic neurons	–
Nc1nnc(-c2cccc(Cl)c2Cl)c(N)n1 [lamotrigine, 3,5-diamino-6-(2,3-dichlorophenyl)-1,2,4-triazine]	–	–	–	–	–	–	can prevent motorneuronal apoptotic cell death
Nc1nc(N)c(-c2cccc(Cl)c2Cl)c(CF)n1 [4082W92, S(+)-2,4-diamino-5-(2,3-dichlorophenyl)-6-fluoromethylpyrimidine]	decreases	significantly reduced sensory neuronal apoptosis	unaffected	–	–	–	–
